Converted amounts (≈) assume the structure as drawn. Structures can show the parent of a compound that is named as a salt.
How the values were obtained:
[1] = system: Salmonella enterica serovar Typhimurium SL1344
RAW264.7 = assay: cytotoxicity (LDH release relative to maximum lysis); higher = more toxic; settings: 50 µM; 2 h
[2] = system: Salmonella enterica serovar Typhimurium SL1344; assay: intracellular MIC (10-fold luminescence reduction); higher = less potent; settings: RAW264.7 macrophages

| MIC ([1]; LPM pH 5.8) [µM] | MIC ([1]; MHB) [µM] | MIC ([1]; MOPS glucose minimal medium) [µM] | intracellular MIC [2] [µM] | SMILES | cytotoxicity (RAW264.7) [%] |
| --- | --- | --- | --- | --- | --- |
| ≤ 0.78 | ≤ 0.78 | ≤ 0.78 | 1.56 | CO/N=C1\CN(c2nc3c(cc2F)c(=O)c(C(=O)O)cn3C2CC2)CC1CN (stereo not given) [GEMIFLOXACIN MESYLATE] | 5.86 |
| 6.25 (≈ 1.41 µg/mL) | 12.5 (≈ 2.81 µg/mL) | 12.5 (≈ 2.81 µg/mL) | ≤ 0.78 | O=C1OCCN1/N=C/c1ccc([N+](=O)[O-])o1 [FURAZOLIDONE] | 6.45 |
| 1.56 | > 50 | > 50 | ≤ 0.78 | O=C(O)CN(CCN(CC(=O)O)CC(=O)O)CC(=O)O.[Na+].[Na+].[Na+] [TRISODIUM ETHYLENEDIAMINE TETRACETATE] | 8.27 |
| ≤ 0.78 | ≤ 0.78 | ≤ 0.78 | > 50 | Nc1nc(/C(=C/CC(=O)O)C(=O)N[C@@H]2C(=O)N3C(C(=O)O)=CCS[C@H]23)cs1 [CEFTIBUTEN] | 21 |
| ≤ 0.78 | ≤ 0.78 | ≤ 0.78 | > 50 | CO/N=C(\C(=O)N[C@@H]1C(=O)N2C(C(=O)O)=C(CSc3nc(=O)c(O)nn3C)CS[C@H]12)c1csc(N)n1 [CEFTRIAXONE SODIUM TRIHYDRATE] | 19.6 |
| ≤ 0.78 | ≤ 0.78 | ≤ 0.78 | 1.56 | CO[C@@]1(NC(=O)C2SC(=C(C(N)=O)C(=O)O)S2)C(=O)N2C(C(=O)O)=C(CSc3nnnn3C)CS[C@@H]21 (stereo not given in full) [CEFOTETAN] | 7.79 |
| ≤ 0.78 | ≤ 0.78 | ≤ 0.78 | 1.56 | CCn1cc(C(=O)O)c(=O)c2cc(F)c(N3CCN(C)CC3)cc21 [PEFLOXACINE MESYLATE] | 20.7 |
| > 50 | > 50 | > 50 | ≤ 0.78 | CCN(CC)C(C)CN1c2ccccc2Sc2ccccc21 (stereo not given) [ETHOPROPAZINE HYDROCHLORIDE] | 11.8 |
| > 50 | > 50 | > 50 | > 50 | CC(C)NC(=N)NC(=N)Nc1ccc(Cl)cc1 [CHLOROGUANIDE HYDROCHLORIDE] | 6.72 |
| > 50 | > 50 | > 50 | 1.56 | CCCNC(C)(C)COC(=O)c1ccccc1 [MEPRYLCAINE HYDROCHLORIDE] | 6.92 |
| ≤ 0.78 | 25 | 6.25 | ≤ 0.78 | CN(C)[C@@H]1C(O)=C(C(N)=O)C(=O)[C@@]2(O)C(O)=C3C(=O)c4c(O)ccc(Cl)c4[C@@](C)(O)[C@H]3C[C@@H]12 [CHLORTETRACYCLINE HYDROCHLORIDE] | 8.37 |
| > 50 | > 50 | > 50 | > 50 | C[C@H]1C[C@@H]2[C@H]([C@@H](O)C[C@@]3(C)[C@H]2CC[C@]3(O)C(=O)CO)[C@@]2(C)C=CC(=O)C=C12 [METHYLPREDNISOLONE] | 8.21 |
| > 50 | > 50 | > 50 | 1.56 | CCCCCN(C)CCC(O)(P(=O)(O)O)P(=O)(O)O [IBANDRONATE SODIUM] | 6.92 |
| > 50 | 12.5 (≈ 10.2 µg/mL) | 12.5 (≈ 10.2 µg/mL) | ≤ 0.78 | CC[C@H]1OC(=O)[C@H](C)C(=O)[C@H](C)[C@@H](O[C@@H]2O[C@H](C)C[C@H](N(C)C)[C@H]2O)[C@](C)(OC)C[C@@H](C)C(=O)[C@H](C)[C@H]2N(CCCCn3cnc(-c4cccnc4)c3)C(=O)O[C@]12C [TELITHROMYCIN] | 20.8 |
| ≤ 0.78 | 12.5 | 3.13 | 1.56 | CN(C)[C@@H]1C(O)=C(C(N)=O)C(=O)[C@@]2(O)C(O)=C3C(=O)c4c(O)cccc4[C@@](C)(O)[C@H]3C[C@@H]12 [TETRACYCLINE HYDROCHLORIDE] | 7.01 |
| ≤ 0.78 | > 50 | > 50 | > 50 | Cc1cc(C2CCCCC2)n(O)c(=O)c1 [CICLOPIROX OLAMINE] | 15.5 |
| > 50 | > 50 | > 50 | 1.56 | NCc1ccc(S(N)(=O)=O)cc1 [MAFENIDE HYDROCHLORIDE] | 7.52 |
| ≤ 0.78 | > 50 | ≤ 0.78 | ≤ 0.78 | O=c1[nH]cc(F)c(=O)[nH]1 [FLUOROURACIL] | 8.29 |
| 6.25 | 25 | 12.5 | ≤ 0.78 | O=C(O)CCC(=O)OC[C@@H](NC(=O)C(Cl)Cl)[C@H](O)c1ccc([N+](=O)[O-])cc1 [CHLORAMPHENICOL SODIUM SUCCINATE] | 8.03 |

| MIC ([1]; LPM pH 5.8) [µM] | MIC ([1]; MHB) [µM] | MIC ([1]; MOPS glucose minimal medium) [µM] | intracellular MIC [2] [µM] | SMILES | cytotoxicity (RAW264.7) [%] |
| --- | --- | --- | --- | --- | --- |
| ≤ 0.78 | 12.5 | 6.25 | 12.5 | CN(C)c1ccc(O)c2c1C[C@H]1C[C@H]3[C@H](N(C)C)C(O)=C(C(N)=O)C(=O)[C@@]3(O)C(O)=C1C2=O [MINOCYCLINE HYDROCHLORIDE] | 21 |
| ≤ 0.78 | 6.25 (≈ 2.88 µg/mL) | 12.5 (≈ 5.76 µg/mL) | 6.25 | CN(C)[C@@H]1C(O)=C(C(N)=O)C(=O)[C@@]2(O)C(O)=C3C(=O)c4c(O)cccc4[C@@](C)(O)[C@H]3[C@H](O)[C@@H]12 [OXYTETRACYCLINE] | 15.7 |
| > 50 | > 50 | > 50 | 25 | C[n+]1cc2c3c(ccc2c2ccc4cc5c(cc4c21)OCO5)OCO3 [SANGUINARINE SULFATE] | 34.2 |
| ≤ 0.78 | ≤ 0.78 | ≤ 0.78 | ≤ 0.78 | CO/N=C(\C(=O)N[C@@H]1C(=O)N2C(C(=O)O)=C(C[N+]3(C)CCCC3)CS[C@H]12)c1csc(N)n1 [CEFEPIME HYDROCHLORIDE] | 15.4 |
| ≤ 0.78 | 12.5 (≈ 6.83 µg/mL) | ≤ 0.78 | > 50 | CC(C)(O/N=C(\C(=O)N[C@@H]1C(=O)N2C(C(=O)[O-])=C(C[n+]3ccccc3)CS[C@H]12)c1csc(N)n1)C(=O)O [CEFTAZIDIME] | 20.8 |
| > 50 | > 50 | > 50 | > 50 | Cc1ccc(Cl)c(Nc2ccccc2C(=O)O)c1Cl [MECLOFENAMATE SODIUM] | 7.81 |
| > 50 | > 50 | > 50 | ≤ 0.78 | CC[C@@H]1C(=O)OC[C@@H]1Cc1cncn1C [PILOCARPINE NITRATE] | 7.24 |
| ≤ 0.78 | ≤ 0.78 | ≤ 0.78 | ≤ 0.78 | NC1CCN(c2c(F)cc3c(=O)c(C(=O)O)cn(C4CC4)c3c2Cl)C1 (stereo not given) [CLINAFOXACIN HYDROCHLORIDE] | 15.8 |
| > 50 | > 50 | > 50 | > 50 | COc1cc(CNC(=O)CCCC/C=C/C(C)C)ccc1O [CAPSAICIN] | 19.5 |
| 12.5 (≈ 4.86 µg/mL) | > 50 | > 50 | > 50 | COC(=O)C1=C(C)NC(C)=C(C(=O)OCC(C)C)C1c1ccccc1[N+](=O)[O-] (stereo not given) [NISOLDIPINE] | 20.8 |
| > 50 | > 50 | > 50 | ≤ 0.78 | Cc1ccc(Nc2c(F)cccc2Cl)c(CC(=O)O)c1 [LUMIRACOXIB] | 7.05 |
| > 50 | > 50 | > 50 | 1.56 | CC(C)NCC(O)COc1cccc2[nH]ccc12 (stereo not given) [PINDOLOL] | 7.73 |
| > 50 | > 50 | > 50 | ≤ 0.78 | Cc1nc2ccccc2n1Cc1ccc(Cl)cc1 [CHLORMIDAZOLE] | 12.9 |
| 1.17 | > 50 | > 50 | > 50 | CO[C@@H]1[C@@H](OC(N)=O)[C@@H](O)[C@H](Oc2ccc3c(O)c(NC(=O)c4ccc(O)c(CC=C(C)C)c4)c(=O)oc3c2C)OC1(C)C [NOVOBIOCIN SODIUM] | 7.98 |
| > 50 | > 50 | > 50 | 25 | CN(C)CC(c1ccc(O)cc1)C1(O)CCCCC1 (stereo not given) [DESVENLAFAXINE SUCCINATE] | 8.25 |
| ≤ 0.78 | > 50 | 1.56 (≈ 0.384 µg/mL) | 6.25 | C[C@H]1O[C@@H](n2cc(F)c(=O)[nH]c2=O)[C@H](O)[C@@H]1O [DOXIFLURIDINE] | 13 |
| ≤ 0.78 | 25 (≈ 4.75 µg/mL) | 6.25 (≈ 1.19 µg/mL) | > 50 | O=[N+]([O-])c1ccc(O)c2ncccc12 [NITROXOLINE] | 14.6 |
| ≤ 0.78 | 12.5 (≈ 4.04 µg/mL) | 3.13 (≈ 1.01 µg/mL) | ≤ 0.78 | O=C(N[C@H](CO)[C@H](O)c1ccc([N+](=O)[O-])cc1)C(Cl)Cl [CHLORAMPHENICOL] | 8.21 |

| SMILES | MIC ([1]; LPM pH 5.8) [µM] | MIC ([1]; MHB) [µM] | MIC ([1]; MOPS glucose minimal medium) [µM] | intracellular MIC [2] [µM] | cytotoxicity (RAW264.7) [%] |
| --- | --- | --- | --- | --- | --- |
| CCn1cc(C(=O)O)c(=O)c2cc3c(cc21)OCO3 [OXOLINIC ACID] | 1.56 (≈ 0.408 µg/mL) | 3.13 (≈ 0.818 µg/mL) | ≤ 0.78 | 1.56 | 6.86 |
| CO[C@]12C[C@@H](COC(=O)c3cncc(Br)c3)CN(C)[C@@H]1Cc1cn(C)c3cccc2c13 [NICERGOLINE] | > 50 | > 50 | > 50 | 25 | 20.4 |
| O=C(CCCN1CCC2(CC1)C(=O)NCN2c1ccccc1)c1ccc(F)cc1 [SPIPERONE] | > 50 | > 50 | > 50 | > 50 | 20.9 |
| Oc1cc(Cl)ccc1Oc1ccc(Cl)cc1Cl [TRICLOSAN] | ≤ 0.78 | ≤ 0.78 | ≤ 0.78 | 1.56 | 23.5 |

— the supplement of paper PMC6331611
